PubChem BioAssay (NCI)
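Protocol summary: plate cells (96-well), add compound at 5 concentrations, incubate 48 h, interpolate endpoints linearly. The concentration for full growth arrest is given as TGI.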

How the values were obtained:
Assay in all cases: DTP human tumour cell line panel, 48 h
786-0 renal = test system: 786-0 renal
A498 renal = test system: A498 renal
A549 NSCLC = test system: A549 NSCLC
ACHN renal = test system: ACHN renal
BT-549 breast = test system: BT-549 breast
CAKI-1 renal = test system: CAKI-1 renal
CCRF-CEM leukemia = test system: CCRF-CEM leukemia
COLO 205 colon = test system: COLO 205 colon
EKVX NSCLC = test system: EKVX NSCLC
HCC-2998 colon = test system: HCC-2998 colon
HCT-116 colon = test system: HCT-116 colon
HCT-15 colon = test system: HCT-15 colon
HL-60(TB) leukemia = test system: HL-60(TB) leukemia
HOP-62 NSCLC = test system: HOP-62 NSCLC
HOP-92 NSCLC = test system: HOP-92 NSCLC
HS 578T breast = test system: HS 578T breast
HT29 colon = test system: HT29 colon
IGROV1 ovarian = test system: IGROV1 ovarian
K-562 leukemia = test system: K-562 leukemia
KM12 colon = test system: KM12 colon
LOX IMVI melanoma = test system: LOX IMVI melanoma
MALME-3M melanoma = test system: MALME-3M melanoma
MCF7 breast = test system: MCF7 breast
MDA-MB-231 breast = test system: MDA-MB-231 breast
MDA-MB-435 = test system: MDA-MB-435
MDA-N = test system: MDA-N
MOLT-4 leukemia = test system: MOLT-4 leukemia
NCI-H23 lung = test system: NCI-H23 lung
NCI-H460 lung = test system: NCI-H460 lung
NCI/ADR-RES ovarian = test system: NCI/ADR-RES ovarian
OVCAR-3 ovarian = test system: OVCAR-3 ovarian
OVCAR-4 ovarian = test system: OVCAR-4 ovarian
OVCAR-5 ovarian = test system: OVCAR-5 ovarian
OVCAR-8 ovarian = test system: OVCAR-8 ovarian
PC-3 prostate = test system: PC-3 prostate
SF-295 CNS = test system: SF-295 CNS
SF-539 CNS = test system: SF-539 CNS
SK-MEL-2 melanoma = test system: SK-MEL-2 melanoma
SK-MEL-28 melanoma = test system: SK-MEL-28 melanoma
SK-MEL-5 melanoma = test system: SK-MEL-5 melanoma
SK-OV-3 ovarian = test system: SK-OV-3 ovarian
SN12C renal = test system: SN12C renal
SNB-19 CNS = test system: SNB-19 CNS
SNB-75 CNS = test system: SNB-75 CNS
SR leukemia = test system: SR leukemia
SW-620 colon = test system: SW-620 colon
T-47D breast = test system: T-47D breast
TK-10 renal = test system: TK-10 renal
U251 CNS = test system: U251 CNS
UACC-257 melanoma = test system: UACC-257 melanoma
DU-145 prostate = test system: DU-145 prostate
M14 melanoma = test system: M14 melanoma
NCI-H226 lung = test system: NCI-H226 lung
NCI-H522 lung = test system: NCI-H522 lung
RPMI-8226 leukemia = test system: RPMI-8226 leukemia
RXF 393 renal = test system: RXF 393 renal
SF-268 CNS = test system: SF-268 CNS
UACC-62 melanoma = test system: UACC-62 melanoma
UO-31 renal = test system: UO-31 renal

## C/C(=N\Nc1nc2ccccc2[nH]1)c1ccncn1
786-0 renal
  TGI: > 100 µM
A498 renal
  TGI: 6.38 µM
A549 NSCLC
  TGI: > 100 µM
ACHN renal
  TGI: 0.986 µM
BT-549 breast
  TGI: > 100 µM
CAKI-1 renal
  TGI: > 49 µM
CCRF-CEM leukemia
  TGI: > 36.6 µM
COLO 205 colon
  TGI: > 47.4 µM
EKVX NSCLC
  TGI: 43.2 µM
HCC-2998 colon
  TGI: > 79.5 µM
HCT-116 colon
  TGI: 26.8 µM
HCT-15 colon
  TGI: > 100 µM
HL-60(TB) leukemia
  TGI: 0.054 µM
HOP-62 NSCLC
  TGI: 1.3 µM
HOP-92 NSCLC
  TGI: 0.293 µM
HS 578T breast
  TGI: > 100 µM
HT29 colon
  TGI: > 100 µM
IGROV1 ovarian
  TGI: 43.8 µM
K-562 leukemia
  TGI: > 100 µM
KM12 colon
  TGI: 35.9 µM
LOX IMVI melanoma
  TGI: > 42.5 µM
MALME-3M melanoma
  TGI: > 100 µM
MCF7 breast
  TGI: > 39.2 µM
MDA-MB-231 breast
  TGI: > 100 µM
MDA-MB-435
  TGI: > 100 µM
MDA-N
  TGI: > 100 µM
MOLT-4 leukemia
  TGI: > 100 µM
NCI-H23 lung
  TGI: > 33.3 µM
NCI-H460 lung
  TGI: > 100 µM
NCI/ADR-RES ovarian
  TGI: 4.54 µM
OVCAR-3 ovarian
  TGI: 13 µM
OVCAR-4 ovarian
  TGI: > 100 µM
OVCAR-5 ovarian
  TGI: > 100 µM
OVCAR-8 ovarian
  TGI: > 87.6 µM
PC-3 prostate
  TGI: > 100 µM
SF-295 CNS
  TGI: > 44.6 µM
SF-539 CNS
  TGI: > 100 µM
SK-MEL-2 melanoma
  TGI: > 66.1 µM
SK-MEL-28 melanoma
  TGI: > 63 µM
SK-MEL-5 melanoma
  TGI: 13.4 µM
SK-OV-3 ovarian
  TGI: 64.3 µM
SN12C renal
  TGI: 10.2 µM
SNB-19 CNS
  TGI: > 100 µM
SNB-75 CNS
  TGI: > 74.5 µM
SR leukemia
  TGI: > 100 µM
SW-620 colon
  TGI: > 100 µM
T-47D breast
  TGI: > 100 µM
TK-10 renal
  TGI: > 100 µM
U251 CNS
  TGI: > 100 µM
UACC-257 melanoma
  TGI: > 31.6 µM

## Nc1ccn([C@H]2CO[C@@H](CO)O2)c(=O)n1
786-0 renal
  TGI: > 100 µM
A549 NSCLC
  TGI: > 100 µM
ACHN renal
  TGI: 7.87 µM
BT-549 breast
  TGI: > 100 µM
CAKI-1 renal
  TGI: 23 µM
CCRF-CEM leukemia
  TGI: > 92 µM
COLO 205 colon
  TGI: > 100 µM
DU-145 prostate
  TGI: > 22.6 µM
EKVX NSCLC
  TGI: > 100 µM
HCC-2998 colon
  TGI: > 100 µM
HCT-116 colon
  TGI: > 100 µM
HCT-15 colon
  TGI: > 100 µM
HL-60(TB) leukemia
  TGI: > 67.2 µM
HOP-62 NSCLC
  TGI: > 57.9 µM
HOP-92 NSCLC
  TGI: 43.8 µM
HS 578T breast
  TGI: > 100 µM
HT29 colon
  TGI: > 100 µM
IGROV1 ovarian
  TGI: > 100 µM
K-562 leukemia
  TGI: > 100 µM
KM12 colon
  TGI: > 100 µM
LOX IMVI melanoma
  TGI: > 100 µM
M14 melanoma
  TGI: 19.1 µM
MALME-3M melanoma
  TGI: > 100 µM
MCF7 breast
  TGI: > 100 µM
MDA-MB-231 breast
  TGI: > 100 µM
MDA-MB-435
  TGI: > 100 µM
MDA-N
  TGI: > 100 µM
MOLT-4 leukemia
  TGI: 49.5 µM
NCI-H226 lung
  TGI: > 100 µM
NCI-H23 lung
  TGI: > 100 µM
NCI-H460 lung
  TGI: > 100 µM
NCI-H522 lung
  TGI: > 100 µM
NCI/ADR-RES ovarian
  TGI: > 100 µM
OVCAR-3 ovarian
  TGI: > 100 µM
OVCAR-4 ovarian
  TGI: > 100 µM
OVCAR-5 ovarian
  TGI: > 100 µM
OVCAR-8 ovarian
  TGI: > 100 µM
PC-3 prostate
  TGI: > 100 µM
RPMI-8226 leukemia
  TGI: > 100 µM
RXF 393 renal
  TGI: > 83.3 µM
SF-268 CNS
  TGI: > 100 µM
SF-295 CNS
  TGI: > 100 µM
SF-539 CNS
  TGI: 68.4 µM
SK-MEL-2 melanoma
  TGI: > 100 µM
SK-MEL-28 melanoma
  TGI: > 100 µM
SK-MEL-5 melanoma
  TGI: > 100 µM
SK-OV-3 ovarian
  TGI: > 100 µM
SN12C renal
  TGI: > 100 µM
SNB-19 CNS
  TGI: > 100 µM
SNB-75 CNS
  TGI: > 100 µM
SR leukemia
  TGI: > 100 µM
SW-620 colon
  TGI: > 100 µM
T-47D breast
  TGI: > 100 µM
TK-10 renal
  TGI: > 100 µM
U251 CNS
  TGI: > 100 µM
UACC-257 melanoma
  TGI: > 100 µM
UACC-62 melanoma
  TGI: > 46.4 µM
UO-31 renal
  TGI: > 75.1 µM
